Article PMC5686395, “Eukaryotic-type serine/threonine kinase mediated phosphorylation at Thr^169 perturbs mycobacterial guanylate kinase activity” (Bioscience Reports, 2017)

Tests used:
PknA-core (PknA-338) = PknA-core (PknA-338) (Mycobacterium tuberculosis, UniProt P9WI83)
PknB = PknB (Mycobacterium tuberculosis, UniProt P9WI81)
Chain of PknB (P9WI81 2-626): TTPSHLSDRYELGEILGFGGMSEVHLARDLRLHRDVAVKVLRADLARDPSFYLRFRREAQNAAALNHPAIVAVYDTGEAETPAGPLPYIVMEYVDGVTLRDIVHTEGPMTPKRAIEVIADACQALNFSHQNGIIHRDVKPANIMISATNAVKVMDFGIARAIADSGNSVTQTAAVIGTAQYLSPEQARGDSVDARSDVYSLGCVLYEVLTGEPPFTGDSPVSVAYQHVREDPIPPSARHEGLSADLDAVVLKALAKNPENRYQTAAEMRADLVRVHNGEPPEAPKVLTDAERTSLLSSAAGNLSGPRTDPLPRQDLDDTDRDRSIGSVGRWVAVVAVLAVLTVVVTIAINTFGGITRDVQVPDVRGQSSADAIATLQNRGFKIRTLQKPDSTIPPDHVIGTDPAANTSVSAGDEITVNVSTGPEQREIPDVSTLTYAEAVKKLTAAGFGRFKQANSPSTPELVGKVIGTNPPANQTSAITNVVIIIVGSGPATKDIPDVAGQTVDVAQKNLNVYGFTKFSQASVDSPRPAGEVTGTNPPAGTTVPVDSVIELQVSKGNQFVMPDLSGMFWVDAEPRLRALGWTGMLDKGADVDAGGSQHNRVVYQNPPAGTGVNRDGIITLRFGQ

Chain of PknA-core (PknA-338) (P9WI83 1-338): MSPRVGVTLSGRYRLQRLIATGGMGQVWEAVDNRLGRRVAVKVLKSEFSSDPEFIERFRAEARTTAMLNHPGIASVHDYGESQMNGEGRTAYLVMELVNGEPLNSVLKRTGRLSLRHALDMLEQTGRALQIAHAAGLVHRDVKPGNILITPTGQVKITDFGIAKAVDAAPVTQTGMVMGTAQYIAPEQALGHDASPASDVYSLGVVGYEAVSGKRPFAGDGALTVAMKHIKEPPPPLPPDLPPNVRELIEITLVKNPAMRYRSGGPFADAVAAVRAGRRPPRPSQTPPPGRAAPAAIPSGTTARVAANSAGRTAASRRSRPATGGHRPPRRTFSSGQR

**Q.** With Nc1ncnc2c1ncn2[C@@H]1O[C@H](COP(=O)(O)OP(=O)(O)OP(=O)(O)O)[C@@H](O)[C@H]1O [[γ-32P] ATP] as the compound, how does the “in vitro kinase assay, SDS/PAGE and autoradiography” value (PknA-core (PknA-338)) read?
**A.** its incubation with PknA exhibited phosphorylation

**Q.** What about the “in vitro kinase assay, SDS/PAGE and autoradiography” value (PknB) of the same compound?
**A.** PknB, another essential mycobacterial kinase, instead of PknA in the assay yielded weak p-mGmk
